# Results as given in ChEMBL document CHEMBL1201862, “PubChem BioAssay data set” (2004).
# The source made the active and inactive calls.
# Legend:
# [1] = Luminescence Cell-Based Dose Confirmation HTS to Identify Activators of 5'UTR Stem-Loop Driven Alpha-Synuclein mRNA Translation in H4 Neuroglioblastoma Cells. [Related pubchem assays: 1829 (Project Summary), 1814 (Primary HTS)]; assay type: functional
# [2] = Luminescence Cell-Based Dose Response to Identify Activators of Luciferase Translation or Activity in H4-C Neuroglioblastoma Cells. [Related pubchem assays: 1829 (Project Summary), 1814 (Primary HTS)]; assay type: functional
# [3] = system: H4; assay: Luminescence Cell-Based Dose Response HTS to Identify Activators of 5'UTR Stem-Loop Driven Prion Protein mRNA Translation in H4 Neuroglioblastoma Cells. [Related pubchem assays: 1829 (Project Summary), 1814 (Primary HTS)]; assay type: functional; settings: Homo sapiens
# [4] = Luminescence Cell-Based Dose Response HTS to Identify Activators of Luciferase Translation or Activity in H4 […] Cells. [Related pubchem assays: 1829 (Project Summary), 1814 (Primary HTS)]; assay type: functional
# [5] = Luminescence Cell-Based Dose Confirmation to Identify Activators of 5'UTR Stem-Loop Driven Alpha-Synuclein mRNA Translation in H4 Neuroglioblastoma Cells. [Related pubchem assays: 1829 (Project Summary), 1814 (Primary HTS)]; assay type: functional
# [6] = Luminescence Cell-Based Dose Response to Identify Activators of 5'UTR Stem-Loop Driven Prion Protein mRNA Translation in H4-C Neuroglioblastoma Cells. [Related pubchem assays: 1829 (Project Summary), 1814 (Primary HTS)]; assay type: functional
# [7] = biological target: T1, Eukaryotic translation initiation factor 2-alpha kinase 3 (Homo sapiens, UniProt Q9NZJ5); assay: Counterscreen assay for PERK inhibitors: Dose response cell-based high throughput screening assay to measure inhibition of PERK at 6 hours. [Related pubchem assays: 1522, 1416 ]; assay type: functional
# T1 sequence (Q9NZJ5 whole entry): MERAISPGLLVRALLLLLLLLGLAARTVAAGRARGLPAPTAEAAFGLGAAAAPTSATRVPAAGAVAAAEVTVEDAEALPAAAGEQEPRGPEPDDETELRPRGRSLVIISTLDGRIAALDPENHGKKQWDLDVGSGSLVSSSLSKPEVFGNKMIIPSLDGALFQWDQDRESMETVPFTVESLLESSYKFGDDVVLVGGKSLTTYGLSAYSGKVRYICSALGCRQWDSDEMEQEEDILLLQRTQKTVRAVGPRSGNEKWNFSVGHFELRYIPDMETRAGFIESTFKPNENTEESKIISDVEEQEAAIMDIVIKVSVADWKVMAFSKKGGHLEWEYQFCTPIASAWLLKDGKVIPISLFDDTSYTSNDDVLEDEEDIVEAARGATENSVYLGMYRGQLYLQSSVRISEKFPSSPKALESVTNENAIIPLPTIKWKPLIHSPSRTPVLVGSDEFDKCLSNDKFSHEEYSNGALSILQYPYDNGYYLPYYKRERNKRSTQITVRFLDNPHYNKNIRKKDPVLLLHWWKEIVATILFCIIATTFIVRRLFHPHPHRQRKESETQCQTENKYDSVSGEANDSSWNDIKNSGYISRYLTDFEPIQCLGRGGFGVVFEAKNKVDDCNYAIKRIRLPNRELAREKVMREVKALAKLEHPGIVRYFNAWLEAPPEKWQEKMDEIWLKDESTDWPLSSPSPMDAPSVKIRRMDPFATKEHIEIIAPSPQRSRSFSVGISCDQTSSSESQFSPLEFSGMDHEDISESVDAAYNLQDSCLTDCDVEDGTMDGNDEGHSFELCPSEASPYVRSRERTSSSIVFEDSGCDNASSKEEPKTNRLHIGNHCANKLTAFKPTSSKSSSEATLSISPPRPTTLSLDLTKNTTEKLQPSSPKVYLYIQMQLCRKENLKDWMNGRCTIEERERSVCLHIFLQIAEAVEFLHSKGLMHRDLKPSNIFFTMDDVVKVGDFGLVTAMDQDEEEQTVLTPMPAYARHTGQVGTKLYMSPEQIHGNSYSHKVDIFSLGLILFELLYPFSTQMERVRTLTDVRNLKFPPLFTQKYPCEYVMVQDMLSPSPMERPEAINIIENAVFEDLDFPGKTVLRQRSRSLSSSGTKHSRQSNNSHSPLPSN
# [8] = biological target: T1, Eukaryotic translation initiation factor 2-alpha kinase 3; assay: Dose response cell-based high-throughput screening assay to measure PERK inhibition. [Related pubchem assays: 1416 ]; assay type: functional
# [9] = biological target: Procathepsin L (Homo sapiens, UniProt P07711)
# [10] = biological target: Aspartyl aminopeptidase (Plasmodium falciparum 3D7, UniProt Q8I2J3)
# [11] = biological target: T2, Streptokinase A (Streptococcus pyogenes serotype M1, UniProt P10520); assay: S. pyogenes streptokinase expression inhibitors, potency, dose response, plasminogen activation absorbance, OD405 (AID 1914); assay type: functional, Streptococcus pyogenes M1 GAS;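 further: secreted streptokinase activity via plasminogen activation per viability signal from cell pellet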
# T2 sequence (P10520 whole entry): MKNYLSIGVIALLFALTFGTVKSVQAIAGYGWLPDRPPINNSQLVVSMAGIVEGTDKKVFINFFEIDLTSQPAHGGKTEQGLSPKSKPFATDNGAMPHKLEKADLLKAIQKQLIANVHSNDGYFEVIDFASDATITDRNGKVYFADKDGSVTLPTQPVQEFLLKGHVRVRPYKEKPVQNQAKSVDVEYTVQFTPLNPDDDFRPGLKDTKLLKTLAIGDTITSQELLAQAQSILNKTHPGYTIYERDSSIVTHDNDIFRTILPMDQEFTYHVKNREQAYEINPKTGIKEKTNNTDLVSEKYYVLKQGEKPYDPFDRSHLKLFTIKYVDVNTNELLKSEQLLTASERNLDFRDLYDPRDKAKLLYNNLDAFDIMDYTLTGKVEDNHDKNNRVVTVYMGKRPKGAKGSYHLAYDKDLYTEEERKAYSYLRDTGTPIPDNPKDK
# [12] = system: Streptococcus sp. 'group A'; assay: growth inhibition of control SK(-) GAS strain, dose response, counter-screen for streptokinase expression inhibitor project, luminescence, kanamycin, BacTiterGlo, confirmation (AID 1900); assay type: functional, organism-based
# [13] = system: Streptococcus; assay: Group A Streptococcus viability loss, dose response, counter-screen for streptokinase expression inhibitor project, luminescence, BacTiterGlo (AID 1915); assay type: functional, organism-based;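 further: potency for reduction of bacterial viability or growth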
# [14] = system: Streptococcus; assay: Luminescence Microorganism-Based Dose Response Follow up to Identify Compounds Cytotoxic to Streptococcus. [Related pubchem assays: 1677 (Project Summary), 1915, 1914, 1902 (Retest at Dose), 1900 (Counter Screen), 1662 (Primary HTS)]; assay type: functional, organism-based
# [15] = biological target: T3, Heat shock factor protein 1 (Mus musculus, UniProt P38532); assay: inhibition of MG132-induced HSE-luciferase signal, confirmation, cell-based, NIH3T3, luminescence, dose retest (AID 2382); assay type: functional;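 further: NIH3T3 fibroblasts with HSF1-driven luciferase reporter stressed by proteasome inhibitor MG132; luminescence from HSF1-driven luciferase expression after 8 hours of MG132 stress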
# T3 sequence (P38532 whole entry): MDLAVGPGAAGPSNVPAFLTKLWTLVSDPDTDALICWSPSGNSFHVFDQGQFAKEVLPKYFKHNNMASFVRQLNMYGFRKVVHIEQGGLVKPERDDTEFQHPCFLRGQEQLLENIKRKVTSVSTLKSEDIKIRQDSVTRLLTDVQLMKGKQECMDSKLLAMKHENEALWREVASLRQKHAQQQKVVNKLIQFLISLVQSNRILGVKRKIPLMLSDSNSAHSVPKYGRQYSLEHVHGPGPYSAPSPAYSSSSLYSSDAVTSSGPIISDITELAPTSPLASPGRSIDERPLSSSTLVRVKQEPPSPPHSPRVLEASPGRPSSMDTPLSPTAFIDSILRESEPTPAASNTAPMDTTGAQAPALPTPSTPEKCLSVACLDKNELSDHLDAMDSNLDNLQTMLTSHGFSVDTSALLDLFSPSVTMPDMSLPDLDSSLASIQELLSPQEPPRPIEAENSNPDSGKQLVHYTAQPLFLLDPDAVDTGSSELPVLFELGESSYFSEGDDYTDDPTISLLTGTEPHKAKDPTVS
# [16] = biological target: Cytochrome P450 2D6 (Homo sapiens, UniProt P10635); assay: qHTS Assay for Inhibitors and Substrates of Cytochrome P450 2D6. [Related pubchem assays: 410 ]; assay type: ADME; settings: read-out: Potency
# [17] = biological target: T4, Peroxisome proliferator-activated receptor gamma/Nuclear receptor corepressor 2 (Homo sapiens, UniProt P37231+Q9Y618); assay: Counterscreen for NR2E3 inverse agonists: TR-FRET-based biochemical high throughput dose response assay to identify inverse agonists of the interaction between peroxisome proliferator-activated receptor gamma (PPARg) and nuclear receptor co-repressor 2 (NCOR2).; assay type: functional
# [18] = biological target: T5, Photoreceptor-specific nuclear receptor (Homo sapiens, UniProt Q9Y5X4); assay: NR2E3 inverse agonists, dose response, biochemical, TR-FRET (AID 463256); assay type: functional
# [19] = biological target: T4, Peroxisome proliferator-activated receptor gamma/Nuclear receptor corepressor 2; assay type: functional
# [20] = biological target: T5, Photoreceptor-specific nuclear receptor; assay type: functional
# [21] = biological target: Benomyl/methotrexate resistance protein (Candida albicans, UniProt P28873); assay: CaMdr1 efflux pump inhibitor potency, dose response, singleplex, Cherry Pick1 hits (AID 588608); assay type: functional
# [22] = biological target: Induced myeloid leukemia cell differentiation protein Mcl-1 (Homo sapiens, UniProt Q07820); assay type: functional
# [23] = biological target: Large T antigen (Simian virus 40, UniProt P03070); assay type: functional, Betapolyomavirus macacae;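 further: Confirmatory-stage PubChem screen for compounds that inhibit SV40 T antigen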
# [24] = biological target: T6, NADPH oxidase 1 (Homo sapiens, UniProt Q9Y5S8); assay type: functional, cell-based;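 further: Cell-based assay with luminescence read-out, IC50 derived from inhibitor dose-response curves; intracellular ROS from endogenous NOX1 in intact HT29 colon cancer cells; potency of inhibitors that lower the ROS luminescence signal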
# T6 sequence (Q9Y5S8 whole entry): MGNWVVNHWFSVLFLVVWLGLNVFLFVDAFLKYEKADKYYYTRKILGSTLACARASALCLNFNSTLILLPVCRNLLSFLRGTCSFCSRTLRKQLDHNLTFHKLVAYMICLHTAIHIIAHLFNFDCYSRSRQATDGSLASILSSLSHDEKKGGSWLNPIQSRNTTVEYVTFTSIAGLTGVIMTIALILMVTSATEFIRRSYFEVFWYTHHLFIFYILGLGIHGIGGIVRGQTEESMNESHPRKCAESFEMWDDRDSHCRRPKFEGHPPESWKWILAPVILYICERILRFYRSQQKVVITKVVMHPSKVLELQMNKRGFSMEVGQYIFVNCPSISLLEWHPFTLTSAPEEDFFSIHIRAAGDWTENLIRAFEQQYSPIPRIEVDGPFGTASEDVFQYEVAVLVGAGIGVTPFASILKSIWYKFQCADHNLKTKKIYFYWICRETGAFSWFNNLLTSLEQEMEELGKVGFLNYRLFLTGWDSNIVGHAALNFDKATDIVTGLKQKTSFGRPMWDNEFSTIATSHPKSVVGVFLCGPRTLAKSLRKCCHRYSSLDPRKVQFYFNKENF
# [25] = biological target: Cytochrome P450 3A4 (Homo sapiens, UniProt P08684); settings: Potency;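 further: confirmatory qHTS run detecting inhibitors and substrates of CYP3A4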
# [26] = biological target: Cytochrome P450 2C9 (Homo sapiens, UniProt P11712); settings: Potency
# T5 sequence (Q9Y5X4 whole entry): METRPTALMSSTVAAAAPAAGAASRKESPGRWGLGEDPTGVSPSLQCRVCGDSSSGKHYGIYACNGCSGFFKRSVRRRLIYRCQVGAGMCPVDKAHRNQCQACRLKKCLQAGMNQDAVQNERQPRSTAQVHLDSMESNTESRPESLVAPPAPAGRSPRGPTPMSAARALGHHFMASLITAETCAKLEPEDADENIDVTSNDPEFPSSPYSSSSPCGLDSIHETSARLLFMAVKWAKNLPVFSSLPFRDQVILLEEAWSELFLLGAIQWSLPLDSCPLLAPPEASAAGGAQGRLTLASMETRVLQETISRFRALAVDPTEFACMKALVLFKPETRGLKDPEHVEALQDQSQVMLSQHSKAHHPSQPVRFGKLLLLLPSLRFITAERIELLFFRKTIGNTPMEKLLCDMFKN
# Cytochrome P450 2D6, sequence (P10635 whole entry): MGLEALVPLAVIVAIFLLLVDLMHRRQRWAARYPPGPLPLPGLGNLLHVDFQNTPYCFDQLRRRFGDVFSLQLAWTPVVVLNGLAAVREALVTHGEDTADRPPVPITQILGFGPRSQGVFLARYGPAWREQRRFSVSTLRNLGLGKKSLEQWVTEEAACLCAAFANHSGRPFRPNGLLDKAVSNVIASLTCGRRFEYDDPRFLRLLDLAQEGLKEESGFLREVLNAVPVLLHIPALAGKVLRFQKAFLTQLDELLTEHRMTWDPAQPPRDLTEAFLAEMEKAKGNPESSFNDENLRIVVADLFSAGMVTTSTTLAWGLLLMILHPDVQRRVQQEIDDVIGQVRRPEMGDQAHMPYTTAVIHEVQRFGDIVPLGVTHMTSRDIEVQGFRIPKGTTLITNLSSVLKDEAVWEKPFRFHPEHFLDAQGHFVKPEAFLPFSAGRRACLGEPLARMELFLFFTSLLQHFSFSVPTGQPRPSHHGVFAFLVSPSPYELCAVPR
# T4 sequence (P37231 whole entry): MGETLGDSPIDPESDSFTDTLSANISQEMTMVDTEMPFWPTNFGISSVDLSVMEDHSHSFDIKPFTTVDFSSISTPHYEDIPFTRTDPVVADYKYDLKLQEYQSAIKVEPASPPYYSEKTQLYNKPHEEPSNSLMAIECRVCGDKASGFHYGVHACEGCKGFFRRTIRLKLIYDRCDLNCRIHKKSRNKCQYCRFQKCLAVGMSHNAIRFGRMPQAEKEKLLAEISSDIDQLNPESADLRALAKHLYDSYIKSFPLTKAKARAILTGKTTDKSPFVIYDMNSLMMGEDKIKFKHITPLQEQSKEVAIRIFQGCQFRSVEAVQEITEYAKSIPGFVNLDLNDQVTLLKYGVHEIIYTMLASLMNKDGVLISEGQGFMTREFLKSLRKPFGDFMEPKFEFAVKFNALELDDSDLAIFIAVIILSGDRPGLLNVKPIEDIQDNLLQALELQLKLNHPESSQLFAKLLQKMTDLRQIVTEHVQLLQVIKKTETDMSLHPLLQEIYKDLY
# T4 sequence (Q9Y618 whole entry): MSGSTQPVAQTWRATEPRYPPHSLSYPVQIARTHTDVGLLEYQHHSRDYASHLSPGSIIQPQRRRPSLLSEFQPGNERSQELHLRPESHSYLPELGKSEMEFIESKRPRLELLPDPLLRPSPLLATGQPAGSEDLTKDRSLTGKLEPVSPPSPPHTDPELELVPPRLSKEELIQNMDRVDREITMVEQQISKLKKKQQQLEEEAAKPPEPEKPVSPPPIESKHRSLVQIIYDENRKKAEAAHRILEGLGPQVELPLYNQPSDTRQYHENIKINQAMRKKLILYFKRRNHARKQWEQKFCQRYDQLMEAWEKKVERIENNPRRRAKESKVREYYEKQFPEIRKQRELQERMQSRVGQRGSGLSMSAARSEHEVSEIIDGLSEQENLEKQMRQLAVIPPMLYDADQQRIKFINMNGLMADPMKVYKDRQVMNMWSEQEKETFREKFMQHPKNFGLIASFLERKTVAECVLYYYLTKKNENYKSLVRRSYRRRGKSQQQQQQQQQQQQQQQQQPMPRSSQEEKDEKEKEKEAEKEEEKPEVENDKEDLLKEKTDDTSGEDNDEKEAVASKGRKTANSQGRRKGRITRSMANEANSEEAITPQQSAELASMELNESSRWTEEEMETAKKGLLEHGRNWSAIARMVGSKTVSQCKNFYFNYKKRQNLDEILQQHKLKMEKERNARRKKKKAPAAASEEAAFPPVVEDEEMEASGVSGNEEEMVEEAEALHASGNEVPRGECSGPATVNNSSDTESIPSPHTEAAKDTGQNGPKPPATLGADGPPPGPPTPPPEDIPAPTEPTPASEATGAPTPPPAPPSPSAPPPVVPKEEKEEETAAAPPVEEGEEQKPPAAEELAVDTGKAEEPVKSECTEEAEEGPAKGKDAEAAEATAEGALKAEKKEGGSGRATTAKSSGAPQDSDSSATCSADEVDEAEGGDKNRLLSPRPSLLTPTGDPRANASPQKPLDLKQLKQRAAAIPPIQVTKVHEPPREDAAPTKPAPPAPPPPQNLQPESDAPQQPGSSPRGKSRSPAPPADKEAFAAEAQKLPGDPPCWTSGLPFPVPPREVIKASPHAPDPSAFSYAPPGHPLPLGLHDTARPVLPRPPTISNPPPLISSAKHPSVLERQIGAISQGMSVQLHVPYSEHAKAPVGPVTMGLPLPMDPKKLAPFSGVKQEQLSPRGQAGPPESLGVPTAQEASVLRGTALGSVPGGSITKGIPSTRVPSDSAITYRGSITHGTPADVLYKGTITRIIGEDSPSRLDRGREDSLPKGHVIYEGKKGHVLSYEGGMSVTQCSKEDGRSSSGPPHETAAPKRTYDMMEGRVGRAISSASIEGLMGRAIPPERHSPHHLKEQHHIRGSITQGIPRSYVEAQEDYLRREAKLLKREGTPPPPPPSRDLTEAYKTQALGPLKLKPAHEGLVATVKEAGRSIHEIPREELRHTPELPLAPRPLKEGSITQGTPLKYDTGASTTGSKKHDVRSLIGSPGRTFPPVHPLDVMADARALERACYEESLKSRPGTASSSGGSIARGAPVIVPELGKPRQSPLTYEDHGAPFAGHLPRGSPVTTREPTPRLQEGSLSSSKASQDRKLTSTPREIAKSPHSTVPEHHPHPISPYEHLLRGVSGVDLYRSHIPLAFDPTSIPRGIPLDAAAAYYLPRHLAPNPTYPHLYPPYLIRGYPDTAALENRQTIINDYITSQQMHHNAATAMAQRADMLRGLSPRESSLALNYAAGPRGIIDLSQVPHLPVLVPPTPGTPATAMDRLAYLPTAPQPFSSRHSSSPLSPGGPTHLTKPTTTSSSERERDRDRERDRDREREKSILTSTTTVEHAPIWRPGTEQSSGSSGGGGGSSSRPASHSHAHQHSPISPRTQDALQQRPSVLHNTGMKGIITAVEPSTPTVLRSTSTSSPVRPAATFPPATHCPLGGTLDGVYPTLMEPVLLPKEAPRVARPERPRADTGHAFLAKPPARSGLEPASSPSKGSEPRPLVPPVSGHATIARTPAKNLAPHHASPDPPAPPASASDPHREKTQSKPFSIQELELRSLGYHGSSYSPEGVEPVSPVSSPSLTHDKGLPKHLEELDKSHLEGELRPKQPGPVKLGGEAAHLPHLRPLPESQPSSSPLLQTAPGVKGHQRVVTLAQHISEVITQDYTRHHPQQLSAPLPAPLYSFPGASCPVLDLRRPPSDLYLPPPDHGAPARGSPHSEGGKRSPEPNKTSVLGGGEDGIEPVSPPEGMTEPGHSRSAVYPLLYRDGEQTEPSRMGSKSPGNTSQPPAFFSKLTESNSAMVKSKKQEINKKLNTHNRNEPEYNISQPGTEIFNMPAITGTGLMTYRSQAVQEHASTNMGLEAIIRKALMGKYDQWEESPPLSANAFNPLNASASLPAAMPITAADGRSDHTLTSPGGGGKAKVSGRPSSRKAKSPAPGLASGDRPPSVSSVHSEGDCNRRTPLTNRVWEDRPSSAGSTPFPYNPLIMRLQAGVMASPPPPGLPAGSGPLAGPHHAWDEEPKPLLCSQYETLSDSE
# Large T antigen, sequence (P03070 whole entry): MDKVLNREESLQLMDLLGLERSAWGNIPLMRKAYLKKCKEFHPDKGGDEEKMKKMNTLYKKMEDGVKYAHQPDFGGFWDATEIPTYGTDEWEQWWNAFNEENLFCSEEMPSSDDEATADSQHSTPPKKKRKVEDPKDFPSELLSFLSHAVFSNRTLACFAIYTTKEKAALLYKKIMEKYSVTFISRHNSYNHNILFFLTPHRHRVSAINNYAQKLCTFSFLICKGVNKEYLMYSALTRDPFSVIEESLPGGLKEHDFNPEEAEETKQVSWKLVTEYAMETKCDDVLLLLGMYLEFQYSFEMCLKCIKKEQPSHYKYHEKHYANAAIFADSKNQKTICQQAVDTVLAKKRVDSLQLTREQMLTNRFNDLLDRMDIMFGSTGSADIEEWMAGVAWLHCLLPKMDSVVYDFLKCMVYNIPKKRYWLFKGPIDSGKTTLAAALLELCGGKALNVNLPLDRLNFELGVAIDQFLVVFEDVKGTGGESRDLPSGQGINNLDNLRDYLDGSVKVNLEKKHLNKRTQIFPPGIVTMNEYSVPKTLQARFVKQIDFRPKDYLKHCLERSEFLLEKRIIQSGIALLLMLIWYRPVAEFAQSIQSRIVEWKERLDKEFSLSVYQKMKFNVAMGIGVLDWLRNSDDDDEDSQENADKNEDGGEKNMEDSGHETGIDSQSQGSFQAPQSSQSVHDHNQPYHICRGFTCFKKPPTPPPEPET
# Induced myeloid leukemia cell differentiation protein Mcl-1, sequence (Q07820 whole entry): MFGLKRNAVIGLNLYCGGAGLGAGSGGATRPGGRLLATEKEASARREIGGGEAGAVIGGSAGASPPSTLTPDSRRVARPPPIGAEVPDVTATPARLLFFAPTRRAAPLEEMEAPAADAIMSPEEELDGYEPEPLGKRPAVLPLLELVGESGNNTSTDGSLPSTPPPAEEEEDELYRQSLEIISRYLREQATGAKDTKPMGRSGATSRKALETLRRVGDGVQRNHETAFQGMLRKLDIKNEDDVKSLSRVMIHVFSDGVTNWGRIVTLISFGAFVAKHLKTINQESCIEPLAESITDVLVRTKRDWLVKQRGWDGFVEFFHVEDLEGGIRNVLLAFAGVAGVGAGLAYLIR
compound,measurement,setting,value
O=C(/C=C(/c1ccc(Cl)cc1)n1cncn1)c1ccccc1,EC50,[1],> 120 µM (not active)
same,EC50,[2],> 12 µM (not active)
same,EC50,[3],> 120 µM (not active)
same,EC50,[4],> 120 µM (not active)
same,EC50,[5],> 12 µM (not active)
same,EC50,[6],> 12 µM (not active)
CC(C)Cn1c(S(=O)(=O)O)nc2ccccc21,EC50,[7],> 55.7 µM (not active)
same,EC50,[8],> 55.7 µM (not active)
Cc1ccc(Cl)cc1NC(=O)Nn1cnnc1,IC50,[9],> 59.6 µM (not active)
same,IC50,[10],1.7 µM (active)
Cc1cccc(NC(=O)C2SC(Nc3c(C)cccc3C)=C(C(=O)N3CCOCC3)C2=N)c1 (stereo not given),EC50,[11],3.32 µM (active)
same,EC50,[12],0.959 µM (active)
same,EC50,[13],> 150 µM (not active)
same,EC50,[14],4.32 µM (active)
same,EC50,[15],> 195 µM (not active)
Cc1cc(F)ccc1OC1C=CC(c2ccc3c(c2)OCO3)OC1CO (stereo not given),AC50,[16],3.98 µM (inconclusive)
Cc1cc(C)c2nc(SCC(=O)NCCC3=CCCCC3)cc(C)c2c1,IC50,[17],> 39.8 µM (not active)
same,IC50,[18],> 39.8 µM (not active)
CCCOC(=O)CCCN1C(=O)/C(=C2\SC(=S)N(CCCC(=O)OCCC)C2=O)SC1=S,EC50,[7],> 55.7 µM (not active)
same,EC50,[8],> 55.7 µM (not active)
Cc1ccc(-c2c3c([nH]c(=S)c2C#N)CCCC3)o1,IC50,[19],1.72 µM (active)
same,IC50,[20],1.09 µM (active)
same,EC50,[21],6.14 µM (active)
same,IC50,[22],2.4 µM (active)
same,IC50,[23],35.4 µM (active)
O=C(CSc1ccc(Cl)cc1)N1c2ccccc2Sc2ccccc21,EC50,[14],> 500 µM (not active)
Cc1cc(/C=N/NC(=O)c2cccc(F)c2)c(C)n1-c1ccccc1,EC50,[2],0.217 µM (active)
same,EC50,[3],> 120 µM (not active)
same,EC50,[4],< 0.1 µM (inconclusive)
same,EC50,[5],2.7 µM (active)
same,EC50,[6],0.849 µM (active)
c1ccc(-c2nc(-c3ccco3)[nH]c2-c2ccccc2)cc1,IC50,[24],> 17 µM (not active)
COc1cc2ccc(=O)oc2c(O)c1OCC=C(C)C [CAPENSIN],AC50,[16],25.1 µM (inconclusive)
same,AC50,[25],12.6 µM (inconclusive)
same,AC50,[26],31.6 µM (inconclusive)
